Experimental data as given in ChEMBL document CHEMBL3397003, “Synthesis of dansyl-labeled probe of thiophene analogue of annonaceous acetogenins for visualization of cell distribution and growth inhibitory activity toward human cancer cell lines” (2015).

Tests used:
Assay type in all cases: functional
[1] = Growth inhibition of human HBC4 cells after 48 hrs by sulforhodamine B colorimetric assay; conditions: HBC4, 48 h, read-out: pGI50 (converted)
[2] = tested on: NCI-H23; experiment: Growth inhibition of human NCI-H23 cells after 48 hrs by sulforhodamine B colorimetric assay; conditions: NCI-H23, 48 h
[3] = Growth inhibition of human SF295 cells after 48 hrs by sulforhodamine B colorimetric assay; conditions: SF-295, 48 h
[4] = tested on: SF-268; experiment: Growth inhibition of human SF268 cells after 48 hrs by sulforhodamine B colorimetric assay; conditions: SF-268, 48 h, read-out: pGI50 (converted)
[5] = tested on: MCF7; experiment: Growth inhibition of human MCF7 cells after 48 hrs by sulforhodamine B colorimetric assay; conditions: MCF7, 48 h
[6] = Growth inhibition of human RXF631L cells after 48 hrs by sulforhodamine B colorimetric assay; conditions: RXF 631, 48 h, read-out: pGI50 (converted)
[7] = Growth inhibition of human SF539 cells after 48 hrs by sulforhodamine B colorimetric assay; conditions: SF-539, 48 h, read-out: pGI50 (converted)
[8] = Growth inhibition of human SNB78 cells after 48 hrs by sulforhodamine B colorimetric assay; conditions: SNB-78, 48 h, read-out: pGI50 (converted)
[9] = tested on: NCI-H522; experiment: Growth inhibition of human NCI-H522 cells after 48 hrs by sulforhodamine B colorimetric assay; conditions: NCI-H522, 48 h
[10] = tested on: SK-OV-3; experiment: Growth inhibition of human SKOV3 cells after 48 hrs by sulforhodamine B colorimetric assay; conditions: SK-OV-3, 48 h, read-out: pGI50 (converted)
[11] = tested on: A549; experiment: Growth inhibition of human A549 cells after 48 hrs by sulforhodamine B colorimetric assay; conditions: A549, 48 h, read-out: pGI50 (converted)
[12] = Growth inhibition of human DMS273 cells after 48 hrs by sulforhodamine B colorimetric assay; conditions: DMS-273, 48 h
[13] = tested on: U-251; experiment: Growth inhibition of human U251 cells after 48 hrs by sulforhodamine B colorimetric assay; conditions: U-251, 48 h, read-out: pGI50 (converted)
[14] = Growth inhibition of human MKN74 cells after 48 hrs by sulforhodamine B colorimetric assay; conditions: MKN-74, 48 h
[15] = Growth inhibition of human OVCAR5 cells after 48 hrs by sulforhodamine B colorimetric assay; conditions: OVCAR-5, 48 h, read-out: pGI50 (converted)
[16] = Growth inhibition of human OVCAR4 cells after 48 hrs by sulforhodamine B colorimetric assay; conditions: OVCAR-4, 48 h, read-out: pGI50 (converted)
[17] = Growth inhibition of human MKN28 cells after 48 hrs by sulforhodamine B colorimetric assay; conditions: MKN-28, 48 h
[18] = tested on: SNB-75; experiment: Growth inhibition of human SNB75 cells after 48 hrs by sulforhodamine B colorimetric assay; conditions: SNB-75, 48 h, read-out: pGI50 (converted)
[19] = Growth inhibition of human HCT116 cells after 48 hrs by sulforhodamine B colorimetric assay; conditions: HCT-116, 48 h
[20] = Growth inhibition of human OVCAR8 cells after 48 hrs by sulforhodamine B colorimetric assay; conditions: OVCAR-8, 48 h, read-out: pGI50 (converted)
[21] = tested on: DU-145; experiment: Growth inhibition of human DU145 cells after 48 hrs by sulforhodamine B colorimetric assay; conditions: DU-145, 48 h, read-out: pGI50 (converted)
[22] = tested on: HT-29; experiment: Growth inhibition of human HT-29 cells after 48 hrs by sulforhodamine B colorimetric assay; conditions: HT-29, 48 h, read-out: pGI50 (converted)
[23] = Growth inhibition of human MKN45 cells after 48 hrs by sulforhodamine B colorimetric assay; conditions: MKN-45, 48 h, read-out: pGI50 (converted)
[24] = Growth inhibition of human LOXIMVI cells after 48 hrs by sulforhodamine B colorimetric assay; conditions: LOX IMVI
[25] = Growth inhibition of human OVCAR3 cells after 48 hrs by sulforhodamine B colorimetric assay; conditions: OVCAR-3, 48 h, read-out: pGI50 (converted)
[26] = tested on: KM12; experiment: Growth inhibition of human KM12 cells after 48 hrs by sulforhodamine B colorimetric assay; conditions: KM12, 48 h, read-out: pGI50 (converted)
[27] = Growth inhibition of human MKN1 cells after 48 hrs by sulforhodamine B colorimetric assay; conditions: MKN-1, 48 h, read-out: pGI50 (converted)
[28] = tested on: MDA-MB-231; experiment: Growth inhibition of human MDA-MB-231 cells after 48 hrs by sulforhodamine B colorimetric assay; conditions: MDA-MB-231, 48 h, read-out: pGI50 (converted)
[29] = Growth inhibition of human HCT15 cells after 48 hrs by sulforhodamine B colorimetric assay; conditions: HCT-15, 48 h, read-out: pGI50 (converted)
[30] = Growth inhibition of human MKN7 cells after 48 hrs by sulforhodamine B colorimetric assay; conditions: MKN-7, 48 h
[31] = tested on: NCI-H226; experiment: Growth inhibition of human NCI-H226 cells after 48 hrs by sulforhodamine B colorimetric assay; conditions: NCI-H226, 48 h, read-out: pGI50 (converted)
[32] = Growth inhibition of human HBC5 cells after 48 hrs by sulforhodamine B colorimetric assay; conditions: HBC5, 48 h
[33] = tested on: ACHN; experiment: Growth inhibition of human ACHN cells after 48 hrs by sulforhodamine B colorimetric assay; conditions: read-out: pGI50 (converted)
[34] = tested on: St-4; experiment: Growth inhibition of human St-4 cells after 48 hrs by sulforhodamine B colorimetric assay; conditions: St-4, 48 h, read-out: pGI50 (converted)
[35] = Growth inhibition of human PC3 cells after 48 hrs by sulforhodamine B colorimetric assay; conditions: PC-3, 48 h, read-out: pGI50 (converted)
[36] = Growth inhibition of human BSY1 cells after 48 hrs by sulforhodamine B colorimetric assay; conditions: BSY-1, 48 h
[37] = Growth inhibition of human HCC2998 cells after 48 hrs by sulforhodamine B colorimetric assay; conditions: HCC 2998, 48 h, read-out: pGI50 (converted)
[38] = Growth inhibition of human DMS114 cells after 48 hrs by sulforhodamine B colorimetric assay; conditions: DMS-114, 48 h
[39] = tested on: NCI-H460; experiment: Growth inhibition of human NCI-H460 cells after 48 hrs by sulforhodamine B colorimetric assay; conditions: NCI-H460, 48 h, read-out: pGI50 (converted)

Which GI50 [1] does the source give for `CCCCCCCCCCCC[C@@H](O)[C@H]1CC[C@H]([C@H](O)CCCCCCCCCCNC(=O)c2ccsc2)O1` here?
Its GI50 is greater than 100 µM.

And the GI50 [2]?
Its GI50 is 0.2 µM.

What about the GI50 [3] of the same compound?
The GI50 was 1 µM.

And the GI50 [4]?
Its GI50 is greater than 100 µM.

And the GI50 [5]?
Its GI50 is 2 µM.

What about the GI50 [6] of the same compound?
The GI50 was greater than 100 µM.

What about the GI50 [7] of the same compound?
The GI50 was greater than 100 µM.

And the GI50 [8]?
Its GI50 is greater than 100 µM.

And the GI50 [9]?
Its GI50 is 1 µM.

What about the GI50 [10] of the same compound?
The GI50 was greater than 100 µM.

What about the GI50 [11] of the same compound?
The GI50 was greater than 100 µM.

And the GI50 [12]?
The GI50 was 2 µM.

And the GI50 [13]?
Its GI50 is greater than 100 µM.

With `CN(C)c1cccc2c(S(=O)(=O)NCCCCCCCCC[C@@H](O)[C@H]3CC[C@H]([C@H](O)CCCCCCCCCCNC(=O)c4ccsc4)O3)cccc12` as the compound, how does the GI50 [14] read?
The GI50 was 33.1 µM.

And the GI50 [15]?
Its GI50 is greater than 100 µM.

And the GI50 [16]?
The GI50 was greater than 100 µM.

What about the GI50 [1] of the same compound?
The GI50 was greater than 100 µM.

And the GI50 [17]?
The GI50 was 0.0363 µM.

What about the GI50 [2] of the same compound?
The GI50 was 36.3 µM.

And the GI50 [18]?
The GI50 was greater than 100 µM.

What about the GI50 [19] of the same compound?
Its GI50 is 0.302 µM.

And the GI50 [3]?
The GI50 was 12.9 µM.

What about the GI50 [20] of the same compound?
Its GI50 is greater than 100 µM.

And the GI50 [4]?
Its GI50 is greater than 100 µM.

What about the GI50 [21] of the same compound?
The GI50 was greater than 100 µM.

What about the GI50 [22] of the same compound?
The GI50 was greater than 100 µM.

And the GI50 [23]?
Its GI50 is greater than 100 µM.

What about the GI50 [24] of the same compound?
Its GI50 is 0.676 µM.

What about the GI50 [25] of the same compound?
Its GI50 is greater than 100 µM.

What about the GI50 [5] of the same compound?
The GI50 was 2.88 µM.

And the GI50 [26]?
Its GI50 is greater than 100 µM.

And the GI50 [6]?
Its GI50 is greater than 100 µM.

What about the GI50 [7] of the same compound?
The GI50 was greater than 100 µM.

And the GI50 [8]?
The GI50 was greater than 100 µM.

What about the GI50 [27] of the same compound?
The GI50 was greater than 100 µM.

And the GI50 [28]?
Its GI50 is greater than 100 µM.

And the GI50 [29]?
The GI50 was greater than 100 µM.

What about the GI50 [9] of the same compound?
The GI50 was 25.7 µM.

What about the GI50 [30] of the same compound?
The GI50 was 0.0363 µM.

And the GI50 [31]?
The GI50 was greater than 100 µM.

What about the GI50 [10] of the same compound?
The GI50 was greater than 100 µM.

And the GI50 [32]?
The GI50 was 0.363 µM.

And the GI50 [33]?
Its GI50 is greater than 100 µM.

What about the GI50 [34] of the same compound?
The GI50 was greater than 100 µM.

And the GI50 [35]?
The GI50 was greater than 100 µM.

What about the GI50 [11] of the same compound?
The GI50 was greater than 100 µM.

What about the GI50 [36] of the same compound?
The GI50 was 1.2 µM.

And the GI50 [12]?
The GI50 was greater than 100 µM.

And the GI50 [37]?
Its GI50 is greater than 100 µM.

And the GI50 [13]?
The GI50 was greater than 100 µM.

And the GI50 [38]?
Its GI50 is 0.0302 µM.

And the GI50 [39]?
Its GI50 is greater than 100 µM.
